One test concerns the target T1, h P2X3 (Homo sapiens, UniProt P56373).
T1 sequence (P56373 1-397): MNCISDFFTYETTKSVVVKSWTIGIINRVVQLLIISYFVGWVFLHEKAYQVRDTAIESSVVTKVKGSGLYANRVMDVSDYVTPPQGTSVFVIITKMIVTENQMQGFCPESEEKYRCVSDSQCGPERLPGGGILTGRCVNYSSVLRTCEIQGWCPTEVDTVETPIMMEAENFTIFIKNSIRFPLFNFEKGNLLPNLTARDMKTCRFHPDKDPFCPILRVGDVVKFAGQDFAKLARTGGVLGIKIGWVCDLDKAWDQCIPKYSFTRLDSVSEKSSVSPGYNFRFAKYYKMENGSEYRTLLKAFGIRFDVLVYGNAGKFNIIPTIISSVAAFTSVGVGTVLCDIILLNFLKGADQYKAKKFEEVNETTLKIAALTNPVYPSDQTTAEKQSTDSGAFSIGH
The test is described as follows: In vitro electrophysiology assay for P2X3 (Sophion Qube automated whole-cell patch clamp). It counts as cell-based. The following applies: for h P2X3 (pIC50 range of activity): Table 3. On the procedure: In Vitro Electrophysiology Assay for P2X3
(§1) Cells expressing P2X3 receptors were grown according to standard practice and maintained at 37° C. in a 5% humidified CO2 atmosphere. The cells were seeded into T175 flask 2 days prior to the day of the assay and dissociated from the flasks using TrypLE when grown to confluence of 80-90%. The dissociated cells were resuspended in serum free media at a cell density of 3×10^6 cells/ml and loaded onto the Sophion Qube automated patch-clamp system. The extracellular assay buffer contained 145 mM NaCl, 4 mM KCl, 2 mM CaCl2, 1 mM MgCl2, 10 mM HEPES, and 10 mM glucose at pH 7.4. The intracellular assay solution contained 140 mM CsF, 10 mM NaCl, 10 mM EGTA, 10 mM HEPES at pH 7.2. Agonist stock solutions were prepared in H2O and diluted in bath solution prior to use. All antagonists were prepared as 10 mM stock solutions in DMSO and diluted in bath solution prior to use. All experiments were performed under the whole-cell patch clamp configuration at room temperature with 384 individual cells being voltage clamped at −60 mV simultaneously on the Sophion Qube instrument. Two baseline responses were established with the application of α,β-MeATP (800 nM), with the subsequent agonist applications being washed out using extracellular assay buffer containing 0.5 U/ml apyrase. Following the second agonist application, antagonist was incubated in the absence of α,β-MeATP for 10 minutes. After antagonist preincubation, 800 nM α,β-MeATP and antagonist were co-administered to determine the inhibitory effect of the antagonist. One concentration of an antagonist was assessed against a single cell, with different concentrations of the antagonist applied to other cells on the 384 recording substrate. The control P2X3 current amplitude was taken from the peak current amplitude from the second agonist response prior to preincubation with antagonist. The peak P2X3 current amplitude in the presence of antagonist was used to calculate the inhibitory effect at each concentration of the antagonist according to the following equation:
Percentage inhibition of P2X3=(P2X3 control peak amplitude−P2X3 antagonist peak amplitude)/P2X3 control peak amplitude)*100
Concentration-response curves were constructed from ten different concentrations with each concentration of antagonist tested on at least two individual cells. The concentration of the antagonist to inhibit P2X3 current by 50% (IC50) was determined by fitting the data with the following equation:
Y=a+[(b−a)/(1+10^((log c−x)d)]
Where ‘a’ is minimum response, ‘b’ is maximum response, ‘c’ is IC50 and ‘d’ is Hill slope.
The results for individual compounds are provided below in Table 2 and are expressed as range of activity.
(In general: In patch-clamp work, channel activity is measured electrically.)

In the next test the target is T2, h P2X2/3 (Homo sapiens, UniProt P56373+Q9UBL9).
T2 construct: host or cells: cells not described; same protocol as the P2X3 assay
T2 sequence (P56373 1-397): T1 sequence (P56373 1-397)
T2 sequence (Q9UBL9 1-471): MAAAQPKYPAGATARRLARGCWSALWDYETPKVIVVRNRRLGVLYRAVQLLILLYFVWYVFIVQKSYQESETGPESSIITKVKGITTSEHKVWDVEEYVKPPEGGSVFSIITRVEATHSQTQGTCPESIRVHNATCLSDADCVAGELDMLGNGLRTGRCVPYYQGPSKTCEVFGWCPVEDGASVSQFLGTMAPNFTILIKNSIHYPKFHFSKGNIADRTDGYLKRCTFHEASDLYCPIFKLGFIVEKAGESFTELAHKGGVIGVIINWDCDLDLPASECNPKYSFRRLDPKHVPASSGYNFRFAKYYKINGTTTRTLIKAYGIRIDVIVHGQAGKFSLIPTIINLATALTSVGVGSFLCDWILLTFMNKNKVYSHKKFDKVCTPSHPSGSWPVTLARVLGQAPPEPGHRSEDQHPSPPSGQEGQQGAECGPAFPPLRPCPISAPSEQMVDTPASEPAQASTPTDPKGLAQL
The test is described as follows: In vitro electrophysiology assay for P2X2/3 (same protocol as the P2X3 assay, 10 μM ATP as agonist). It counts as cell-based. The following applies: Table 3; agonist 10 μM ATP, mean current amplitude seven seconds after agonist; read-out: h P2X2/3 (pIC50 range of activity) (converted). On the procedure: as §1, with “The peak P2X3 current amplitude in the presence of antagonist was used to calculate the inhibitory effect at each concentration of the antagonist according to the following equation:” left out
The same assay protocol was used for the P2X2/3 assay as the P2X3 assay with two modifications: 1) 10 μM ATP was used as the agonist; and 2) the mean current amplitude was measured seven seconds after the application of agonist.

The mark [1] stands for this setting: Table 2, agonist 800 nM α,β-MeATP, 10 min antagonist preincubation, peak current, read-out: h P2X3 (pIC50 range of activity) (converted).
[2] abbreviates: agonist 800 nM α,β-MeATP, peak current.

Here are results for 14 compounds from patent publication US20230416233A1, “(AZA)QUINOLINE 4-AMINES DERIVATIVES AS P2X3 INHIBITORS” (CHIESI FARMACEUTICI S.P.A., priority 2020, published 2023).

SMILES strings stand for the structures. Like-named read-outs stand apart in the source and are kept apart here.

Regarding `Cc1ccc(CNc2cnnc3ccc(-c4ccc(F)cc4)cc23)nn1` [Example 1, 6-(4-Fluorophenyl)-N-((6-methylpyridazin-3-yl)methyl)cinnolin-4-amine], the IC50 at h P2X3 (setting [1]) is under 316 nM.

As for `C[C@@H](Nc1cnnc2ccc(-c3ccc(F)cc3)cc12)c1cnc(C(F)(F)F)nc1` [Example 2, 6-(4-Fluorophenyl)-N-((1R)-1-(2-(trifluoromethyl)pyrimidin-5-yl)ethyl)cinnolin-4-amine], the IC50 at h P2X3 (setting [1]) was under 316 nM; on h P2X2/3 it was 316 to 3160 nM. On h P2X3 (setting [2]), the “h P2X3 (pIC50 range of activity)” value was “+++ (+++: pIC50 h P2X3 or h P2X2/3 > 6.5)”.

As to `Cc1cnc(-c2ccc3nncc(N[C@H](C)c4cnc(C(F)(F)F)nc4)c3c2)s1` [Example 3, 6-(5-Methylthiazol-2-yl)-N-((1R)-1-(2-(trifluoromethyl)pyrimidin-5-yl)ethyl)cinnolin-4-amine], the IC50 on h P2X3 (setting [1]) was under 316 nM.

Take `Cc1ccc(-c2ccc3nncc(N[C@H](C)c4cnc(C(F)(F)F)nc4)c3c2)nc1` [Example 4, 6-(5-Methylpyridin-2-yl)-N-((1R)-1-(2-(trifluoromethyl)pyrimidin-5-yl)ethyl)cinnolin-4-amine]: the IC50 on h P2X3 (setting [1]) is under 316 nM; on h P2X2/3, 316 to 3160 nM. In addition, the “h P2X3 (pIC50 range of activity)” value on h P2X3 (setting [2]) is reported as “+++ (+++: pIC50 h P2X3 or h P2X2/3 > 6.5)”.

As to `Cc1ccc(-c2ccc3nncc(NCc4ccc(C)nn4)c3c2)nc1` [Example 5, N-((6-methylpyridazin-3-yl)methyl)-6-(5-methylpyridin-2-yl)cinnolin-4-amine], the IC50 on h P2X3 (setting [1]) was under 316 nM.

For `COc1cc(-c2ccc(F)cc2)cc2c(N[C@H](C)c3ccc(C)nn3)cnnc12` [Example 6, (R)-6-(4-fluorophenyl)-8-methoxy-N-(1-(6-methylpyridazin-3-yl)ethyl)cinnolin-4-amine], on h P2X3 (setting [1]), the IC50 is under 316 nM.

Turning to `COc1cc(-c2ccc(F)cc2)cc2c(N[C@H](C)c3cnc(C(F)(F)F)nc3)cnnc12` [Example 7, (R)-6-(4-fluorophenyl)-8-methoxy-N-(1-(2-(trifluoromethyl)pyrimidin-5-yl)ethyl)cinnolin-4-amine], on h P2X3 (setting [1]), the IC50 is under 316 nM.

In the case of `COc1cc(-c2ncc(C)cn2)cc2c(N[C@H](C)c3ccc(C)nn3)cnnc12` [Example 8, (R)-8-methoxy-N-(1-(6-methylpyridazin-3-yl)ethyl)-6-(5-methylpyrimidin-2-yl)cinnolin-4-amine], the IC50 is under 316 nM at h P2X3 (setting [1]) and 3160 to 31600 nM at h P2X2/3. Besides, on h P2X3 (setting [2]), the “h P2X3 (pIC50 range of activity)” value was “+++ (+++: pIC50 h P2X3 or h P2X2/3 > 6.5)”.

Turning to `Cc1ccc(-c2ccc3nccc(N[C@H](C)c4cnc(C(F)(F)F)nc4)c3c2)nc1` [Example 9, (R)-6-(5-methylpyridin-2-yl)-N-(1-(2-(trifluoromethyl)pyrimidin-5-yl)ethyl) quinolin-4-amine], at h P2X3 (setting [1]), the IC50 is under 316 nM.

In the case of `Cc1ccc(-c2ccc3nccc(NCc4ccc(C)nn4)c3c2)nc1` [Example 10, N-((6-methylpyridazin-3-yl)methyl)-6-(5-methylpyridin-2-yl)quinolin-4-amine], the IC50 at h P2X3 (setting [1]) was under 316 nM.

Turning to `Cc1ccc(CNc2ccnc3ccc(-c4ccc(F)cc4)cc23)nn1` [Example 11, 6-(4-Fluorophenyl)-N-((6-methylpyridazin-3-yl)methyl)quinolin-4-amine], the IC50 on h P2X3 (setting [1]) is under 316 nM.

Regarding `C[C@@H](Nc1ccnc2ccc(-c3ccc(F)cc3)cc12)c1cnc(C(F)(F)F)nc1` [Example 12, (R)-6-(4-fluorophenyl)-N-(1-(2-(trifluoromethyl)pyrimidin-5-yl)ethyl)quinolin-4-amine], the IC50 at h P2X3 (setting [1]) is 316 to 3160 nM.

Regarding `Cc1ccc([C@@H](C)Nc2cnnc3ccc(-c4ccc(F)cc4)cc23)nn1` [Example 13, 6-(4-Fluorophenyl)-N-[(1R)-1-(6-methylpyridazin-3-yl)ethyl]cinnolin-4-amine], the IC50 on h P2X3 (setting [1]) was under 316 nM.

In the case of `Cc1ccc(CNc2nccc3ccc(-c4ccc(F)cc4)cc23)nn1` [comparative Example A, reference compound], on h P2X3 (in vitro assay as described for P2X3, read-out: activity on receptor P2X3 expressed as pIC50 (converted)), the IC50 is over 3160 nM.
